# Measurements reported in patent US10342221B2, “Generation of an inducible pericyte-specific CRE mouse model” (University of Southern California, priority 2016, dated 2019).
# Where two headings read alike, the source gives them in different places.
# What was measured:
# [1] = system: pericytes expressing Cre-dependent diphtheria toxin receptor
# Experimental: (§1) Animals were sacrificed at 3 days post DT or vehicle treatment (FIG. 3A) or 15 days post DT or vehicle treatment (FIG. 4A) as indicated, and brains were collected and analyzed.
# (§2) Animals were anesthetized with an i.p. injection of 100 mg/kg of ketamine and 50 mg/kg of 10 xylazine, and transcardially perfused first with 15 ml saline, followed by 20 ml of 4% paraformaldehyde (PFA) in PBS. Brains were removed, and post-fixed overnight at 4° C. before brain sections were cut at 30 μm thickness. Sections were blocked with 5% normal donkey serum (Vector Laboratories)/0.1% Triton-X/0.01M PBS and incubated with primary antibody diluted in blocking solution overnight at 4° C. […] To visualize brain microvessels, sections were incubated with Dylight 488-conjugated L. esculentum Lectin as the Inventors have previously reported. […] Sections were imaged with a Zeiss LSM 510 confocal laser-scanning microscope using a series of high-resolution optical sections (1,024×1,024-pixel format) that were captured with a 25× water-immersion objective, with 1× zoom at 1-μm step intervals for Z-stacks. Laser settings for gain, digital offset and laser intensity were kept standardized between different treatments and experiments. Z-stack projections and pseudo-coloring were performed using ZEN software (Carl Zeiss Microimaging), and image post-analysis were performed using ImageJ software.
# Tissue was incubated for 30 min in 20 μg/ml Proteinase K and the In Situ Cell Death Detection Kit (Roche) was used per the manufacturer's instructions. Sections were coverslipped as described above. For each image, ten microns maximum projection z-stacks were reconstructed and analyzed using ImageJ. […] In each animal 5 randomly selected fields from the cortex were analyzed in 3 nonadjacent sections (˜100 μm apart). Three animals per group were analyzed.
# The quantitative analysis of pericyte coverage and numbers was restricted to CD13-positive cells that were associated with brain capillaries defined as microvessels ≤6 μm in diameter, as previously described. The endothelial-specific Lycopersicon esculentum lectin was used to visualize endothelial vascular profiles, and CD13 coverage of brain capillaries was determined as CD13-positive area (percentage) occupying lectin-positive endothelial capillary profiles, as previously. For each image, ten microns maximum projection z-stacks were reconstructed and analyzed using ImageJ. Pericyte numbers were determined by counting the number of CD13-positive cell bodies on the abluminal side of the endothelial membrane (lectin) that co-localized with DAPI (4′,6-diamidino-2-phenylindole)-positive nuclei and tdTomato-positive cell bodies using the Image J Cell Counter plug-in, as the Inventors and others previously described. The number of pericytes was expressed per mm^2 of tissue.
# hippocampal function = test: Behavioral tests: novel object location and contextual fear conditioning; assay type: in vivo, mouse
# Experimental: Novel object location test was performed as the Inventors have previously reported. Animals were placed in a […] and allowed to habituate to the testing area for 10 min. Animals were then placed back in their cages and 2 identical approximately 5×5 cm objects were placed in the top left and right corner of the testing area. Animals were allowed to explore the two objects in the testing area for 5 min before being returned to their cages. After an hour interval one of the objects was relocated and the animals were allowed to explore the testing area once again for 3 min. After each trial, the testing area and the objects were thoroughly cleaned with 70% ethanol solution. All the trials, including habituation, were recorded with a high resolution camera and the amount of time each animal spent exploring the objects was analyzed. Any animals that presented a preference for either of the two identical objects, before replacement with the novel location, were eliminated from the analysis. Both male and female animals were used in the study.
# Long-term memory formation paradigm in contextual fear conditioning was adapted from a previously described protocol with modifications. The experiment was performed using conditioning chamber made of plexiglas housed in a soundproof isolation cubicle and equipped with a stainless-steel grid floor connected to a solid-state shock scrambler. The scrambler was connected to an electronic constant-current shock source that was controlled via an interface connected to a computer running FreezeFrame software (Coulbourn Instruments, Allentown, Pa., USA). A digital camera was mounted on the steel ceiling and behavior was recorded. […] Hippocampus-dependent fear memory formation was evaluated by scoring freezing behavior (the absence of all movement except for respiration). Percentage of total freezing time was assessed using the automated FreezeFrame system with a threshold set at 10%. […]
# [2] = system: cerebral blood flow (CBF) response; test: Cerebral blood flow responses by laser-Doppler flowmetry
# Experimental: as §1
# Animals were initially anesthetized with 100 mg/kg of ketamine and 50 mg/kg of xylazine and were placed on a heating pad (37° C.). The cranium of the mouse was firmly secured in a stereotaxic frame. A high speed dental drill (tip FST 19007-05, Fine Science Tools Inc., Foster City, Calif.) was used to thin a square cranial window about 2×2 mm over the parietal cortex, and 45 degree forceps were used to remove the square piece of skull. Gelfoam (Pharmacia & Upjohn Company, Kalamazoo, Mass.) was applied immediately to control any cranial or dural bleeding. A sterile 5 mm glass cover slip was then placed on the dura mater and sealed with a 1:1 mixture of bone cement and cyanoacrylate based glue.
# CBF responses to hindlimb stimulation in anesthetized mice (˜1% isoflurane) were determined using laser-Doppler flowmetry as previously described. The tip of the laser-Doppler probe (Transonic Systems Inc., Ithaca, N.Y.) was stereotaxically placed 0.5 mm above the cranial window over the hindlimb region of the primary somatosensory cortical area. CBF was recorded following electrical stimulation of the hind-limb using a 60 s long stimulus (7 Hz, 2 ms pulse duration). The percentage increase in CBF due to stimulation was obtained by subtracting the baseline CBF from the stable maximum plateau value reached during stimulus, and averaged over three trials per mouse. For CBF response to drug application, the LDF probe was placed stereotaxically over the center of an open cranial window (center at AP=−0.94 mm, L=1.5 mm). Drugs (10 μM Acetylcholine, and 400 μM Adenosine, all from Sigma) were superfused individually over the window, and responses recorded, as the Inventors reported previously. Arterial blood pressure was monitored continuously during the experiment. pH and blood gases were monitored before and after CBF recordings.
# [3] = system: pericytes expressing Cre-dependent diphtheria toxin receptor; assay type: in vivo, mouse; details: TAM-treated Pericyte-CreER; iDTR mice; DT 1 μg i.p. per day for 10 days; 3 days after DT; versus vehicle
# neurons = test: NeuN-positive neuron numbers and SMI-312 neuritic density
# Experimental: as §1
# Animals were anesthetized with an i.p. injection of 100 mg/kg of ketamine and 50 mg/kg of 10 xylazine, and transcardially perfused first with 15 ml saline, followed by 20 ml of 4% paraformaldehyde (PFA) in PBS. Brains were removed, and post-fixed overnight at 4° C. before brain sections were cut at 30 μm thickness. Sections were blocked with 5% normal donkey serum (Vector Laboratories)/0.1% Triton-X/0.01M PBS and incubated with primary antibody diluted in blocking solution overnight at 4° C. […] Sections were imaged with a Zeiss LSM 510 confocal laser-scanning microscope using a series of high-resolution optical sections (1,024×1,024-pixel format) that were captured with a 25× water-immersion objective, with 1× zoom at 1-μm step intervals for Z-stacks. Laser settings for gain, digital offset and laser intensity were kept standardized between different treatments and experiments. Z-stack projections and pseudo-coloring were performed using ZEN software (Carl Zeiss Microimaging), and image post-analysis were performed using ImageJ software.
# For each image, ten microns maximum projection z-stacks were reconstructed and analyzed using ImageJ. NeuN-positive neurons were determined using the ImageJ Cell Counter analysis tool. In each animal, five randomly selected fields from the cortex and the hippocampus in three nonadjacent sections (˜100 μm apart) were analyzed. Six animals per group were analyzed.
# blood-brain barrier = test: Blood-brain barrier integrity: extravascular IgG and fibrin deposits, ZO-1 tight junction length
# Experimental: as §1, §2
# For each image, ten microns maximum projection z-stacks were reconstructed and analyzed using ImageJ. The levels of extravascular blood-derived fibrin and IgG deposits indicating BBB breakdown were determined as previously described.
# For each image, ten microns maximum projection z-stacks were reconstructed and analyzed using ImageJ. The length of ZO-1-positive tight junctions occupying lectin-positive capillary profiles was determined using the NeuronJ plugin for ImageJ, expressed as the length of ZO-1 (mm) over the lectin-positive capillary area (mm^2) as the Inventors have previously reported. ZO-1 and lectin stainings were performed as described above. The length of ZO1-positive tight junctions was normalized to the total area of lectin-positive microvessels using the Image J Area measurement tool.
# [4] = cortex, TAM-treated pericyte-CreER, iDTR mice, 3 days after DT compared to vehicle
# [5] = control iDTR animals treated with TAM and DT
# [6] = TAM-treated pericyte-CreER, iDTR mice, 3 days after DT compared to vehicle
# [7] = somatosensory cortex and hippocampus, respectively, 15 days after DT compared to vehicle
substance,measurement,setting,value
diphtheria toxin [DT],"number of astrocytes, astrocytic endfeet coverage on microvessels or microglia density",[1]; 3 days after DT treatment,no changes were observed
same,pericyte coverage,"[1]; TAM-treated control iDTR mice, same DT injection protocol",no changes in pericyte coverage
same,loss of tdTomato-positive pericytes in brain capillaries,"[1]; cortex and hippocampus, 3 days after DT treatment compared to vehicle",95%
same,pericyte cell death by TUNEL staining of perivascular tdTomato-positive nuclei,"[1]; cortex, 3 days after DT compared to vehicle",contained fragmented DNA
same,reduction in pericyte capillary coverage (CD13 on lectin-positive profiles),[1]; [4],50%
same,reduction in pericyte density (CD13-positive pericyte cell bodies),[1]; [4],60%
same,reduction in pericyte density (CD13-positive pericyte cell bodies),"[1]; hippocampus, TAM-treated pericyte-CreER, iDTR mice, 3 days after DT compared to vehicle",58%
same,novel object location and fear conditioning,"hippocampal function; TAM-treated pericyte-CreER, iDTR mice, 15 days after DT treatment",significant behavior deficits
same,novel object location and fear conditioning,"hippocampal function; TAM-treated pericyte-CreER, iDTR mice, before treatment (0 d), 6 d of DT treatment, 3 days after last DT injection, versus vehicle",did not show deficits
same,novel object location and fear conditioning,hippocampal function; [5],no differences
same,CBF response in the presence of acetylcholine,"[2]; 10 μM acetylcholine superfused, 3 days after DT treatment or vehicle",no difference in CBF response
same,CBF response in the presence of adenosine,"[2]; 400 μM adenosine superfused, 3 days after DT treatment or vehicle",no difference in CBF response
same,reduction in CBF response to hind limb electrical stimulus,[2]; [6],50%
same,change in CBF responses,[2]; control iDTR animals that received TAM and DT treatment,No significant change
same,loss in DTR protein levels in brain capillaries,[3],90%
same,loss of PDGFRβ protein in brain capillaries,[3],60%
same,neuronal or neuritic changes,neurons; before DT treatment and 3 days after last DT injection compared to vehicle,No significant neuronal or neuritic changes
same,neuron counts and neuritic density,neurons; [5],normal neuron counts and neuritic density
same,loss of NeuN-positive neuronal cell bodies,neurons; [7],20-25%
same,reduction in SMI-312-positive neuritic density,neurons; [7],30-40%
same,reduction in the ZO-1 length on brain capillaries,blood-brain barrier; [6],50%
same,BBB changes,blood-brain barrier; control iDTR animals that received TAM and DT,did not show any BBB changes
same,increase in fibrin deposits,blood-brain barrier; [4],> 4 fold
same,increase in plasma-derived immunoglobulin G deposits,blood-brain barrier; [4],> 4 fold
same,ZO-1 expression,blood-brain barrier; iDTR control animals treated with TAM and DT,No changes
